Test results as given in patent US8445538B2, “Glucagon receptor antagonist compounds” (Merck Sharp & Dohme Corp., priority 2008, dated 2013).

Target: T1, human glucagon receptor (Homo sapiens, UniProt P47871)
T1 construct: expressed in transfected cells; cell membranes used
Assay: Glucagon Receptor Binding Assay (125I-glucagon, SPA, CHO cell membranes)
Settings: 125I-Glucagon binding to membranes of CHO cells expressing cloned human glucagon receptor; more active isomer of indicated compounds
Protocol: Glucagon Receptor Binding Assay
A stable CHO (Chinese hamster ovary) cell line expressing cloned human glucagon receptor was maintained as described (Chicchi, et. al. J Biol Chem 272, 7765-9 (1997); Cascieri, et. al. J Biol Chem 274, 8694-7 (1999)). To determine antagonistic binding affinity of compounds, 0.001-0.003 mg of cell membranes from these cells were pre-incubated with 0.100 mg WGA-coated PVT SPA beads (Amersham) for 20 minutes at room temperature in 25 μL of a buffer containing 50 mM Tris-HCl (pH 7.5), 5 mM MgCl2, 2 mM EDTA, 0.1% BSA and 3% glycerol in Costar 384 well plates with clear bottoms (#3706). Next, 25 μL of ^125I-Glucagon (New England Nuclear, Mass.) (1×10^−14 mol per well) and either 1 μL solutions of test compounds or 0.001 mM unlabeled glucagon or DMSO were added and mixed. After 4-12 hours incubation at room temperature, the radioactivity bound to the cell membranes was determined in a radioactive emission detection counter (Wallac-Microbeta). Data were analyzed using the Data Analyzer software program of Merck & Co., Inc. The IC50 values were calculated using non-linear regression analysis assuming single-site competition.

T1 sequence (P47871 26-477): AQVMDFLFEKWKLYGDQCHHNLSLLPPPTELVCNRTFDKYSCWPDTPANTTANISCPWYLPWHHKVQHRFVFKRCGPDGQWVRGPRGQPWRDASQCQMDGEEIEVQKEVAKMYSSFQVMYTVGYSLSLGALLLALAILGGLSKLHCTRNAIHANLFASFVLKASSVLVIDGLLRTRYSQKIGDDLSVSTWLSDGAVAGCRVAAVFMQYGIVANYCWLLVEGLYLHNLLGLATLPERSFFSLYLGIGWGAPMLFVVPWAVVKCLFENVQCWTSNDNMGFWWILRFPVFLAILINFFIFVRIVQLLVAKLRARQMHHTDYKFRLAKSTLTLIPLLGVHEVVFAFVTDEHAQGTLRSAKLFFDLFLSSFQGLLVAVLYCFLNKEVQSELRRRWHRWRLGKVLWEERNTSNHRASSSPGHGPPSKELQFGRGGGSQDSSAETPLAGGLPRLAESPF

| IC50 [nM] | Structure (SMILES) |
| --- | --- |
| 0.85 | CCC[C@H](c1ccc(C(=O)NCCC(=O)O)cc1)C(c1ccc(Cl)cc1)c1ccc2cc(OC)ccc2c1 (stereo partly drawn) [Example 2, N-(4-{(1S)-1-[(4-chlorophenyl)(6-methoxy-2-naphthyl)methyl]butyl}benzoyl)-β-alanine] |
| 0.37 | CCC[C@H](c1ccc(C(=O)NCCC(=O)O)cc1)C(c1ccc(Cl)cc1)c1ccc2cc(OC(F)F)ccc2c1 (stereo partly drawn) [Example 3, N-[4-((1S)-1-{(4-chlorophenyl)[6-(difluoromethoxy)-2-naphthyl]methyl}butyl)benzoyl]-β-alanine] |
| 1.5 | CCC[C@H](c1ccc(C(=O)NCCC(=O)O)cc1)C(c1ccc(Cl)cc1)c1ccc2cc(C#N)ccc2c1 (stereo partly drawn) [Example 4] |
| 1.7 | CCC[C@H](c1ccc(C(=O)NC[C@H](O)C(=O)O)cc1)C(c1ccc(Cl)cc1)c1ccc2cc(OC)ccc2c1 (stereo partly drawn) [Example 7, (2S)-3-[(4-{(1S)-1-[(4-chlorophenyl)(6-methoxy-2-naphthyl)methyl]butyl}benzoyl)amino]-2-hydroxypropanoic acid] |
| 0.83 | CCCC(c1ccc(C(=O)NCCC(=O)O)cc1)C(c1ccc(Cl)cc1)c1ccc2cc(SC)ccc2c1 (stereo not drawn) [Example 36] |

Second part, the compound before the results:

| Structure (SMILES) | IC50 [nM] |
| --- | --- |
| CCC[C@H](c1ccc(C(=O)NCCC(=O)O)cc1)C(c1ccc(Cl)cc1)c1ccc(F)c2ccccc12 (stereo partly drawn) [Example 1, N-(4-{(1S)-1-[(4-chlorophenyl)(4-fluoro-1-naphthyl)methyl]butyl}benzoyl)-β-alanine] | 3.3 |
| CCC[C@H](c1ccc(C(=O)NCCC(=O)O)cc1)C(c1ccc(C#N)cc1)c1ccc(F)c2ccccc12 (stereo partly drawn) [Example 5, N-(4-{(1S)-1-[(4-cyanophenyl)(4-fluoro-1-naphthyl)methyl]butyl}benzoyl)-β-alanine] | 2.1 |
| CCCC(c1ccc(C(=O)NCCC(=O)O)cc1)C(c1ccc(C)cc1)c1ccc(F)c2ccccc12 (stereo not drawn) [Example 12] | 4.3 |
| CCCC(c1ccc(C(=O)NCCC(=O)O)cc1)C(c1ccc(Cl)cc1)c1ccc(OC)c2ccc(OC)cc12 (stereo not drawn) [Example 21] | 14.2 |
| CCCC(c1ccc(C(=O)NCCC(=O)O)cc1)C(c1ccc(Cl)cc1)c1c(Cl)cc(OC)c2c(F)cccc12 (stereo not drawn) [Example 30] | 53 |
| CCCC(c1ccc(C(=O)NCCC(=O)O)cc1)C(c1ccc(Cl)cc1)c1ccc2cc(S(C)(=O)=O)ccc2c1 (stereo not drawn) [Example 37] | 2.9 |
| CCC[C@H](c1ccc(C(=O)NCC(F)(F)C(=O)O)cc1)C(c1ccc(Cl)cc1)c1ccc(F)c2ccccc12 (stereo partly drawn) [Example 52] | 98 |
| CCC[C@H](c1ccc(C(=O)NCCS(=O)(=O)O)cc1)C(c1ccc(Cl)cc1)c1ccc(F)c2ccccc12 (stereo partly drawn) [Example 53] | 3.4 |
| CCC[C@H](c1ccc(C(=O)NCc2nnn[nH]2)cc1)C(c1ccc(Cl)cc1)c1ccc(F)c2ccccc12 (stereo partly drawn) [Example 55] | 4 |
| CCC[C@H](c1ccc(C(=O)Nc2nnn[nH]2)cc1)C(c1ccc(Cl)cc1)c1ccc(F)c2ccccc12 (stereo partly drawn) [Example 56] | 7.6 |
